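The compound was tested at five concentrations on cells cultured in 96-well plates, with a 48-hour exposure period. GI50 = concentration required for 50% inhibition of growth.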 Activity calls are given as the source filed them. Rule as the data show it: active = GI50 up to about 1.1 µM and inactive = higher. Some results are limits rather than exact numbers.

Holding throughout (assay): growth of human tumour cells (NCI), 48 h
For test [1], the system named is UACC-257.
Test [2] deals with ACHN.
Test [3] deals with SK-MEL-28.
Test [4] has as its system SK-MEL-2.
Test [5] relates to OVCAR-3.
Test [6] relates to UO-31.
Test [7] deals with OVCAR-8.
The test system of test [8] is HOP-92.
The subject of test [9] is UACC-62.
Test [10] has as its system TK-10.
For test [11], the system named is K562.
For test [12], the system named is NCI-H23.
The subject of test [13] is SNB-19.
The test system of test [14] is NCI/ADR-RES.
Test [15] deals with SNB-75.
The subject of test [16] is SK-OV-3.
The subject of test [17] is NCI-H522.
Test [18] relates to PC-3.
Test [19] deals with OVCAR-4.
Test [20] deals with SF-295.

`O=C1Cc2cn[nH]c2-c2ccccc2N1`: the GI50 is 23.5 µM (inactive) in test [1]; 28.8 µM (inactive) in test [2]; 63.1 µM (inactive) in [3]; 26.9 µM (inactive) in test [4]; 16.1 µM (inactive) in test [5]; 32.7 µM (inactive) in test [6]. For the same compound, the GI50 in [7] is 35 µM (inactive); in test [8], 8.45 µM (inactive); in test [9], 22.9 µM (inactive); in test [10] it was 30.2 µM (inactive); in test [11], 21.9 µM (inactive); in [12] it was 29.9 µM (inactive). Further, the GI50 in test [13] is > 68.2 µM (inactive); in test [14], 38.4 µM (inactive); in test [15], 79.3 µM (inactive); in test [16], > 85.7 µM (inactive); in [17], 21.4 µM (inactive); in test [18], 41.2 µM (inactive). Further, the values for the GI50 in test [19] and in [20] were 30.3 µM (inactive) and 61 µM (inactive), respectively.

With `COc1cc(OCc2nc3ccccc3n3cccc23)cc(OC)c1OC`, the GI50 was 10.6 µM (inactive) in [1]; 21.6 µM (inactive) in [2]; 22.1 µM (inactive) in test [3]; > 100 µM (inactive) in [4]; 15 µM (inactive) in test [5]; 28.1 µM (inactive) in test [6]. The GI50 in [7] is 17.1 µM (inactive); in [8] it was 10 µM (inactive); in test [9], 13.8 µM (inactive); in test [10], 32.7 µM (inactive); in test [11], 3.86 µM (inactive); in test [12] it was 5.6 µM (inactive). The GI50 is > 51.1 µM (inactive) in test [13]; 17.9 µM (inactive) in test [14]; > 93.5 µM (inactive) in [15]; 40.6 µM (inactive) in [16]; 13.1 µM (inactive) in test [17]; 30.3 µM (inactive) in test [18]. Moreover, the GI50 was 10.8 µM (inactive) in test [19] and 11.3 µM (inactive) in test [20].

With `COc1cc(/C=C2\C(=O)N(c3cccc(NC(C)=O)c3)C(c3ccccc3)S2(=O)=O)cc(OC)c1OC` (stereo not given), the GI50 in test [1] is > 100 µM (inactive); in [2], > 100 µM (inactive); in [3] it was 91.2 µM (inactive); in [4], > 100 µM (inactive); in test [5] it was 56 µM (inactive); in test [6], 50.5 µM (inactive). Moreover, the GI50 was 48.2 µM (inactive) in test [7]; > 100 µM (inactive) in test [8]; 80.9 µM (inactive) in [9]; > 100 µM (inactive) in [10]; 31.3 µM (inactive) in test [11]; 79.4 µM (inactive) in [12]. The GI50 in [13] was > 100 µM (inactive); in test [14] it was 94.6 µM (inactive); in test [15], 62.7 µM (inactive); in [16] it was > 100 µM (inactive); in test [17] it was 28.4 µM (inactive); in test [18], 42.6 µM (inactive). Besides, the GI50 was 70.5 µM (inactive) in test [19] and 50.9 µM (inactive) in test [20].

For the compound `C#CCOC(=O)C(N)CC(N)=O` (stereo not given), the GI50 in test [1], in [2], in test [3], in test [4], in test [5] and in test [6] was > 100 µM (inactive) throughout. Besides, the GI50 in test [7] is > 100 µM (inactive); in test [8], > 100 µM (inactive); in test [9], > 100 µM (inactive); in test [10], > 100 µM (inactive); in test [11] it was 21.2 µM (inactive); in test [12] it was > 100 µM (inactive). Moreover, the GI50 in [13], in [14], in test [15], in test [16], in test [17] and in test [18] was > 100 µM (inactive) in each case. Further, the GI50 in test [19] and in test [20] was > 100 µM (inactive) each time.

For the compound `Cc1ccc(Nc2c(C#N)[n+]([O-])c3cc(Cl)ccc3[n+]2[O-])cc1`, the GI50 in test [1] is > 76.7 µM (inactive); in [2] it was 11.2 µM (inactive); in test [3], > 100 µM (inactive); in [4], > 100 µM (inactive); in test [5], 4.13 µM (inactive); in test [6], 82.4 µM (inactive). The GI50 is 11.7 µM (inactive) in test [7]; > 100 µM (inactive) in test [8]; 20.7 µM (inactive) in [9]; 29 µM (inactive) in test [10]; 11 µM (inactive) in [11]; 40.5 µM (inactive) in test [12]. The GI50 in test [13] was > 100 µM (inactive); in [14] it was 9.95 µM (inactive); in test [15], 39.5 µM (inactive); in [16] it was 61.7 µM (inactive); in test [17] it was 11.4 µM (inactive); in test [18] it was 9.66 µM (inactive). Besides, the GI50 in test [19] is 24.1 µM (inactive); in [20], 13.6 µM (inactive).

On to `COC(Cc1ccccc1)NC(C)=O` (stereo not given), for which the GI50 in [1], in test [2], in [3], in test [4], in test [5] and in test [6] was > 100 µM (inactive) throughout. The GI50 in test [7], in [8], in test [9], in test [10], in test [11] and in [12] was > 100 µM (inactive) throughout. Further, the GI50 in test [13], in [14], in test [15], in test [16], in test [17] and in [18] was > 100 µM (inactive) throughout. Further, the GI50 in [19] and in test [20] was > 100 µM (inactive) in each case.

Turning to `COc1cc(O)c2c(c1)C(O)C(O)CC1OC1C(=O)/C=C/CC(C)OC2=O` (stereo not given), the GI50 is 0.0849 µM (active) in [1]; 3.2 µM (inactive) in [2]; 0.194 µM (active) in test [3]; 2.72 µM (inactive) in test [4]; 2.74 µM (inactive) in test [5]; 1.17 µM (inactive) in [6]. Moreover, the GI50 in test [7] was 4.13 µM (inactive); in test [8], 0.354 µM (active); in [9] it was 0.0904 µM (active); in [10], 2.28 µM (inactive); in test [11], 1.7 µM (inactive); in test [12] it was 2.1 µM (inactive). Further, the GI50 was 19.8 µM (inactive) in test [13]; 3.68 µM (inactive) in test [14]; 6.65 µM (inactive) in test [15]; 19.7 µM (inactive) in [16]; 1.52 µM (inactive) in [17]; 11.6 µM (inactive) in test [18]. The GI50 in test [19] was 3.27 µM (inactive); in test [20] it was 15.6 µM (inactive).

For the compound `CC1CCc2sc3nc(S)n(C)c(=O)c3c2C1` (stereo not given), the GI50 in test [1] is 35.3 µM (inactive); in test [2] it was 37.3 µM (inactive); in [3] it was 58.5 µM (inactive); in [4], 40.4 µM (inactive); in test [5], 22.4 µM (inactive); in [6], 18.3 µM (inactive). The GI50 in test [7] is 39.5 µM (inactive); in [8], 17.7 µM (inactive); in test [9] it was 33.7 µM (inactive); in test [10], 63 µM (inactive); in test [11] it was 42.2 µM (inactive); in test [12], 35.6 µM (inactive). In addition, the GI50 is 33.8 µM (inactive) in test [13]; 36.1 µM (inactive) in [14]; 35.9 µM (inactive) in test [15]; 81.3 µM (inactive) in test [16]; 30.1 µM (inactive) in test [17]; 25.5 µM (inactive) in test [18]. In addition, the values for the GI50 in [19] and in test [20] were 35.2 µM (inactive) and 31.1 µM (inactive), respectively.

Take `COc1ccc(/C=C2\C[C@H]3[C@@H]4CCC5=C/C(=N/O)CC[C@]5(C)[C@H]4CC[C@]3(C)\C2=N\O)cc1`: the GI50 in [1] is 30.1 µM (inactive); in test [2], 5.52 µM (inactive); in [3] it was 61.8 µM (inactive); in test [4], 22.2 µM (inactive); in [5], 10.2 µM (inactive); in [6], 4.53 µM (inactive). Moreover, the GI50 was 9.42 µM (inactive) in test [7]; 17.3 µM (inactive) in test [8]; 14.5 µM (inactive) in test [9]; 37.1 µM (inactive) in test [10]; 6.47 µM (inactive) in test [11]; 19.5 µM (inactive) in [12]. Besides, the GI50 is 20 µM (inactive) in [13]; 8.18 µM (inactive) in [14]; 19.7 µM (inactive) in test [15]; 42.7 µM (inactive) in test [16]; 14.9 µM (inactive) in test [17]; 8.17 µM (inactive) in [18]. Besides, the values for the GI50 in test [19] and in [20] were 25.7 µM (inactive) and 12.6 µM (inactive), respectively.

In the case of `CON(C)C(=O)C1CCCO1` (stereo not given), the GI50 in test [1] is 57.5 µM (inactive); in test [2] it was > 100 µM (inactive); in test [3], > 100 µM (inactive); in [4] it was > 100 µM (inactive); in [5] it was > 100 µM (inactive); in test [6], > 100 µM (inactive). The GI50 in test [7] was > 100 µM (inactive); in [8] it was > 100 µM (inactive); in test [9], > 100 µM (inactive); in test [10], > 100 µM (inactive); in test [11], > 100 µM (inactive); in test [12], 18.5 µM (inactive). Besides, the GI50 in test [13], in [14], in [15], in test [16], in test [17] and in [18] was > 100 µM (inactive) in each case. For the same compound, the GI50 in [19] and in test [20] was > 100 µM (inactive) throughout.

(Values after ChEMBL document CHEMBL1201862, “PubChem BioAssay data set” (2004).)
